According to the NIST ThermoML archive (doi:10.1016/j.jct.2010.06.012):
Where “and” joins values, the source holds several entries; their conditions need not be identical. Equal values may be shown once.

Conditions: Crystal, Calculated from knudsen effusion weight loss

Ic1ccc(-n2cccc2)cc1 [1-(4-iodophenyl)pyrrole]
Conditions | vapor or sublimation pressure
319.11 K | 0.000107 kPa and 0.000112 kPa and 0.000109 kPa
321.19 K | 0.000142 kPa and 0.00014 kPa and 0.000137 kPa
323.18 K | 0.000174 kPa and 0.000169 kPa
325.12 K | 0.000218 kPa and 0.000216 kPa and 0.00021 kPa
327.19 K | 0.000274 kPa and 0.00027 kPa and 0.000265 kPa
329.18 K | 0.000336 kPa and 0.000331 kPa and 0.000329 kPa
331.11 K | 0.000402 kPa and 0.000421 kPa and 0.000416 kPa
333.17 K | 0.00052 kPa and 0.000522 kPa and 0.000508 kPa
335.17 K | 0.000639 kPa and 0.000628 kPa and 0.000624 kPa
337.12 K | 0.000778 kPa and 0.000814 kPa and 0.000806 kPa
339.19 K | 0.001022 kPa and 0.001014 kPa and 0.000977 kPa
341.17 K | 0.001237 kPa and 0.001212 kPa and 0.001211 kPa

Fc1ccc(-n2cccc2)cc1 [1-(4-fluorophenyl)pyrrole]
Conditions | vapor or sublimation pressure
271.14 K | 0.000157 kPa and 0.000149 kPa and 0.000152 kPa
273.16 K | 0.0002 kPa and 0.000197 kPa
275.2 K | 0.000237 kPa and 0.000236 kPa
277.18 K | 0.000303 kPa and 0.000288 kPa and 0.000313 kPa
279.18 K | 0.000396 kPa and 0.000393 kPa and 0.000391 kPa
281.18 K | 0.000509 kPa and 0.000505 kPa and 0.000497 kPa
283.12 K | 0.000688 kPa and 0.000694 kPa and 0.00068 kPa
285.13 K | 0.000863 kPa and 0.000854 kPa and 0.000832 kPa
287.17 K | 0.001072 kPa and 0.001068 kPa and 0.001064 kPa

Clc1ccc(-n2cccc2)cc1 [1-(4-chlorophenyl)-1H-pyrrole]
Conditions | vapor or sublimation pressure
295.22 K | 0.000183 kPa and 0.000176 kPa and 0.000175 kPa
297.17 K | 0.000227 kPa and 0.00022 kPa and 0.000219 kPa
299.22 K | 0.000289 kPa and 0.000279 kPa and 0.000275 kPa
301.12 K | 0.000363 kPa and 0.000364 kPa and 0.000378 kPa
303.17 K | 0.000467 kPa and 0.000463 kPa and 0.000451 kPa
305.21 K | 0.000595 kPa and 0.000571 kPa and 0.000558 kPa
307.1 K | 0.000744 kPa and 0.000715 kPa and 0.000706 kPa
309.12 K | 0.000904 kPa and 0.000892 kPa and 0.000871 kPa
311.22 K | 0.001132 kPa and 0.001115 kPa and 0.001084 kPa
